The text below walks through data of article PMC9576955, “Daidzein is the in vivo active compound of Puerariae Lobatae Radix water extract for muscarinic receptor-3 inhibition against overactive bladder” (Frontiers in Pharmacology, 2022).

For orientation: IC50 means the midpoint of a concentration-inhibition curve. High values mean a need for much substance, low ones inhibition by little substance. For orientation: ΔTm means the change in melting temperature against a reference sample.

Series [1] in a line: Urine metabolites after oral Gegen water extract, quantified by UPLC-MS/MS. The series is classed as in vivo, spontaneously hypertensive rats (SHRs). The note with it: spontaneously hypertensive rat (SHR), 3-week treatment, Mean ± SEM; for concentration at 2 h: 2 h after last dose of Gegen water extract 300 mg/kg p.o., n = 8, read-out: Content in urine, 2 h; for concentration at 4 h: 4 h after last dose of Gegen water extract 300 mg/kg p.o., n = 8, read-out: Content in urine, 4 h; for concentration at 6 h: 6 h after last dose of Gegen water extract 300 mg/kg p.o., n = 8, read-out: Content in urine, 6 h; for concentration at 8 h: 8 h after last dose of Gegen water extract 300 mg/kg p.o., n = 8, read-out: Content in urine, 8 h. As for the experimental part: Urine samples were collected into ice-cold 15-ml Falcon tubes every 2 h and up to a total of 8 h, and the tubes were cooled by ice to prevent bacteria proliferation and water evaporation during collection. […] The gradient profile was set as follows: 10-40% B from 0 to 11 min; and 40-80% B from 11 to 15 min. The parameters for mass spectrometry were as follows: capillary, 2.5 kV for negative mode; sampling cone, 34 V; source offset, 80 V; cone gas flow, 150 L/h; desolvation gas flow, 650 L/h; and desolvation temperature, 350°C. Samples were kept at 4°C in the sample manager, and the column was maintained at 40°C. […] The precision and accuracy of the quantitation were satisfied according to FDA Bioanalytical Method Validation Guidance for Industry. Total ion chromatograms including retention times and MRM masses are shown in Supplementary Figure S2.

For series [2], the target named is T1, M3 receptor (carbachol-induced detrusor contraction) (Rattus norvegicus, UniProt P08483).
T1 construct: the whole bladder was immediately isolated to prepare detrusor strips in Krebs’ solution; from tissue; host or cells: bladder detrusor strips / bladder sections of SHR
T1 sequence (P08483 whole entry): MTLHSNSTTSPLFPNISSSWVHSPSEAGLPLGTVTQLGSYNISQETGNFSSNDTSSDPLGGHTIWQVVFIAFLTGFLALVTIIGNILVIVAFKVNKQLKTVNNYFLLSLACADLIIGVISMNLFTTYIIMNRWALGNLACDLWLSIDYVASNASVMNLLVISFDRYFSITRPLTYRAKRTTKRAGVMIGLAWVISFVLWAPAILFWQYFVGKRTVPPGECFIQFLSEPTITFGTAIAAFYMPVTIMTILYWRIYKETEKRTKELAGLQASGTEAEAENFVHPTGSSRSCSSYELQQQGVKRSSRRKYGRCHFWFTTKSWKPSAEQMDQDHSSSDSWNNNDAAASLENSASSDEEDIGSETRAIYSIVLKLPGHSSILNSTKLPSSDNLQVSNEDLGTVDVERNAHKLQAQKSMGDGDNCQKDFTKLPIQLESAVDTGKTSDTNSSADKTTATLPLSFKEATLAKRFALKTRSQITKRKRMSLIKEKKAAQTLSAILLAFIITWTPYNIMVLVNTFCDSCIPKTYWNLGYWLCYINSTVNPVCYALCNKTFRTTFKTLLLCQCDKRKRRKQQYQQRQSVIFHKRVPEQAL
Put plainly: Carbachol-induced bladder strip (detrusor) contraction, ex vivo organ bath. The series is classed as cell-based, spontaneously hypertensive rats (SHRs). The note with it: for remaining activity at 100 µg/mL: 100 μg/ml; for inhibition at 100 µg/mL: read-out: inhibition rate at 100 μg/ml; for IC10 value / IC50: carbachol (10 μM)-induced detrusor contraction, Mean ± SEM, n = 3. As to the method: SHRs were sacrificed with carbon dioxide, and the whole bladder was immediately isolated to prepare detrusor strips in Krebs’ solution. Then, the strips were placed in a PanLab organ bath (Harvard Apparatus, Holliston, Massachusetts, United States) full of bubbling Krebs’ solution at 37°C. After stimulation with high-potassium solution, the strips were washed with Krebs’ solution three times. When the strips were incubated in Krebs’ solution until the tension was set at about 1.5 g, 0.1% DMSO was added for a 10-min incubation as a control, and then the muscle strip was stimulated to shrink by adding muscarinic agonist carbachol (10 μM), which is used for determinization of M3 receptor function in the bladder strip ([Liang and Leung, 2012]). Between two stimulations, the strips were washed out and balanced for 15 min. The contraction force of the bladder strip was recorded. After the experiment, detrusor strips were collected, dried, and weighed for data normalization. Data were recorded and analyzed using LabChart software (version 8.0).
Detrusor strips were isolated from SHRs and placed in the organ bath as mentioned previously, and then inhibitory activities of different fractions at 100 μg/ml were tested under carbachol (10 μM)-stimulated detrusor contraction.

The target in series [3] is T2, recombinant human M3 receptor (Homo sapiens, UniProt P20309).
T2 construct: Full-length recombinant human M3 muscarinic acetylcholine receptor membrane preparation was provided by Millipore Co; purchased Millipore Co. (Merck KGaA, Darmstadt, Germany)
T2 sequence (P20309 whole entry): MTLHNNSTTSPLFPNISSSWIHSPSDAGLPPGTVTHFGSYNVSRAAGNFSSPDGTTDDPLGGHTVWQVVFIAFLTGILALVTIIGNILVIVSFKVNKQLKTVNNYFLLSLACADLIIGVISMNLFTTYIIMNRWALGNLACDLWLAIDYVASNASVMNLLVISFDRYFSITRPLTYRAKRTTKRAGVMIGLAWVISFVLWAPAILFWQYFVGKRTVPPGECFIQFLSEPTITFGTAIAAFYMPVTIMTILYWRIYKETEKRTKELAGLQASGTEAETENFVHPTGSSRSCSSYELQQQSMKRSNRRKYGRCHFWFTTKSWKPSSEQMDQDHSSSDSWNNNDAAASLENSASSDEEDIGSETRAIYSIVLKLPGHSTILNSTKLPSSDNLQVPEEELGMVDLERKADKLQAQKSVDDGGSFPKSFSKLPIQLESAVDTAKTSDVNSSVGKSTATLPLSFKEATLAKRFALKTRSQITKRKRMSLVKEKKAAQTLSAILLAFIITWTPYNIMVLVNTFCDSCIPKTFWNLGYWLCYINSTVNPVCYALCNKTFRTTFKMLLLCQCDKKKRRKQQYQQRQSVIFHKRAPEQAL
Put plainly: Thermal shift assay with recombinant human M3 receptor protein. Type of series: binding. The note with it: for binding to the human M3 receptor protein (verdict in words): thermal shift; for Tm value of the human M3 receptor protein: compound at 100 μg/ml, control (1% DMSO) 64.17 ± 0.37°C, n = 3. As to the method:
A thermal shift assay was performed to measure the binding of ligands to a recombinant human M3 receptor as modified from the previous study ([Huynh and Partch, 2015]). Briefly, after optimization of protein and dye concentrations, the M3 receptor protein (0.025 mg/ml) was incubated with different concentrations of tested compounds (0–100 μg/ml in 1% DMSO) in an 18 μl volume of ice-cold PBS for 2 h. Then, SYPRO Orange protein stain (2 μl; 8x as the final concentration diluted from original 5000x with PBS) was added, and the melt curve was detected using the Applied Biosystems QuantStudio5 real-time PCR system under the following conditions: ramp speed, standard; excitation wavelength at 470 nm (Reporter: FAM), and emission wavelength at 586 nm (Quencher: TAMRA) with no passive reference; an initial 2-min hold at 25°C (ramp rate, 1.6°C/s), ramping up in increments of 0.05°C/s to a final temperature of 99°C. Melt temperatures (Tm) were calculated using Protein Thermal Shift software v.1.4 (Applied Biosystems, Thermo, United States). The change in melt temperature (ΔTm) was equal to the Tm of control (1% DMSO) subtracted from the Tm of the tested compound. ΔTm higher than 2°C was considered a positive interaction between the ligand and receptor protein ([Huynh and Partch, 2015]).

In series [4] the target is BSA (Bos taurus, UniProt P02769). Put plainly: Thermal shift control in PBS containing BSA and glycerin. The note with it: 100 μg/ml; no M3 receptor protein; read-out: ΔTm in PBS solution containing BSA and glycerin. The series is classed as binding.
Chain of BSA (P02769 25-607): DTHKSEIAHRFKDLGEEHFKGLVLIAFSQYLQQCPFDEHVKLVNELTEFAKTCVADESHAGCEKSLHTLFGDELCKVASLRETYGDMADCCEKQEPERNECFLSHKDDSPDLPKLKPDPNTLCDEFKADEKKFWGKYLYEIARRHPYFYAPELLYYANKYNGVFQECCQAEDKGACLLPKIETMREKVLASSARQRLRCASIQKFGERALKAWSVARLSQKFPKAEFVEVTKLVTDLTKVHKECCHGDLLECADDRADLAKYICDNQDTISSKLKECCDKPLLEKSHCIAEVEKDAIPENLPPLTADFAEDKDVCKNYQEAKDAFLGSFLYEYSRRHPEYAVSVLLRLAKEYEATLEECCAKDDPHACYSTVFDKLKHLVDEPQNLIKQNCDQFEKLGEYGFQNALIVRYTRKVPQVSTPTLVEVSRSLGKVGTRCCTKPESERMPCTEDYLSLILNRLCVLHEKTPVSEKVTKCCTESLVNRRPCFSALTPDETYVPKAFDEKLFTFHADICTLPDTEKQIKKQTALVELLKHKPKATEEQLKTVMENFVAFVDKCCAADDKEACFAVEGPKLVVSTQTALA
The target in series [5] is T1, M3 receptor (carbachol-induced detrusor contraction). In words: Carbachol-induced bladder strip (detrusor) contraction, ex vivo organ bath. The series is classed as cell-based, spontaneously hypertensive rats (SHRs). The note with it: read-out: inhibition at 12.5 μg/ml.
For series [6] the following is noted: cited from earlier work.
The mark [7] stands for this setting: pure compounds at 100 μg/ml, carbachol 10 μM.

≈ marks a conversion by molar mass, not a printed value. Like-named read-outs stand apart in the source and are kept apart here. A value given as a limit tells only on which side of the number the result lay.

On to `O=c1c(-c2ccc(O)cc2)coc2cc(O)cc(O)c12` [Genistein, Genistein (5-hydroxyl daidzein)], for which, in series [1] (in vivo), the concentration at 2 h amounted to 517 ± 138 ng/mL, the concentration at 4 h was 1410 ± 1000 ng/mL, the concentration at 6 h was determined as 327 ± 98 ng/mL and the concentration at 8 h was determined as 342 ± 35 ng/mL.

In series [2] (carbachol 10 μM), `O=c1c(-c2ccc(O)c(O)c2)coc2c([C@@H]3O[C@H](CO)[C@@H](O)[C@H](O)[C@H]3O)c(O)ccc12` [3′-Hydroxypuerarin, 3′-hydroxypuerarin] had a remaining activity at 100 µg/mL of 82.3 ± 1.8%. Moreover, the inhibition at 100 µg/mL in series [2] (setting [7]) amounted to 17.8 ± 1.75%.

In series [2], `O=c1c(-c2ccc(O)cc2)coc2cc(O)ccc12` [Daidzein, daidzein] had an IC10 value of 8.15 ± 1.85 µg/mL (≈ 32.1 µM) and an IC50 of 158 µM. For the same compound, in series [1] (urine, oral), the concentration at 2 h was 4400 ± 1000 ng/mL, the concentration at 4 h was 15900 ± 9300 ng/mL, the concentration at 6 h was 8130 ± 2660 ng/mL and the concentration at 8 h is 14400 ± 5140 ng/mL. The shift in melting temperature (ΔTm) at 100 µg/mL in series [3] (100 μg/ml, against 1% DMSO, ΔTm higher than 2°C = positive interaction) was 2.12 °C. Moreover, in series [3] (100 μg/ml), the “binding to the human M3 receptor protein (verdict in words)” value is on record as “positively bound”. Besides, the EC50 in series [3] (3.125–100 μg/ml, at 65.3°C, read-out: EC50 of concentration-dependent increase of Tm (converted)) is 62.1 µM. In addition, in series [3], the “Tm value of the human M3 receptor protein” value came to 66.29 ± 0.38 °C. Further, the ΔTm at 100 µg/mL in series [4] was about 0.58 °C. Besides, in series [5], the inhibition at 12.5 µg/mL was found to be 15%. In addition, in series [6] (rat, in vivo, po), the “plasma AUC” value is on record as 4·4 μg·h/mL.

In turn, `O=c1c(-c2ccc(O)cc2)coc2c([C@@H]3O[C@H](CO[C@@H]4OC[C@](O)(CO)[C@H]4O)[C@@H](O)[C@H](O)[C@H]3O)c(O)ccc12` [Puerarin apioside, puerarin apioside] gave a remaining activity at 100 µg/mL in series [2] (carbachol 10 μM) of 89.3 ± 9.2%. Also, in series [2] (setting [7]), the inhibition at 100 µg/mL came out at 10.7 ± 9.24%.

Take `O=c1c(-c2ccc(O)cc2)coc2c([C@@H]3O[C@H](CO)[C@@H](O)[C@H](O)[C@H]3O)c(O)ccc12` [Puerarin, puerarin (daidzein-8-C-glucoside)]: in series [2], the IC10 value stood at 2.90 ± 2.11 µg/mL (≈ 6.96 µM) and the inhibition at 100 µg/mL was 33.8 ± 3.05%. Further, in series [1] (urine, oral), the concentration at 2 h was found to be 6380 ± 897 ng/mL, the concentration at 4 h amounted to 10300 ± 2480 ng/mL, the concentration at 6 h is 3310 ± 325 ng/mL and the concentration at 8 h stood at 2210 ± 164 ng/mL. The “binding to the human M3 receptor protein (verdict in words)” value in series [3] (100 μg/ml) was “very weak binding”. Further, the “Tm value of the human M3 receptor protein” value in series [3] is 64.92 ± 0.03 °C. Also, the “plasma AUC” value in series [6] (after oral administration of Gegen water extract, ref Wei et al., 2020) was 15.1 µg·h/mL.

In series [2], `O=c1c(-c2ccc(O)cc2)coc2cc(O[C@@H]3O[C@H](CO)[C@@H](O)[C@H](O)[C@H]3O)cc(O)c12` [Genistin, genistin (genistein-7-O-glucoside)] registered an IC50 of over 231 µM.

For the compound `COc1ccc(-c2coc3cc(O)cc(O)c3c2=O)cc1` [Biochanin A, Biochanin A (genistein 4′-methyl ether)], in series [2], the IC10 value is 34.94 ± 6.75 µg/mL (≈ 123 µM) and inhibition was half-maximal at 201 µM (IC50). In series [1] (urine, oral), the concentration at 2 h is 26 ± 7 ng/mL, the concentration at 4 h was found to be 85 ± 57 ng/mL, the concentration at 6 h worked out at 30 ± 14 ng/mL and the concentration at 8 h was determined as 28 ± 5 ng/mL.
